Experimental findings from US9970945B2, “Compositions, methods, and assays using proteo-liposome-transfected oocytes for analyzing the structure, function, and activity of membrane proteins” (Georgia State University Research Foundation, Inc., priority 2013, dated 2018) are described below.

One assay has as its target T1, EcSecA (Escherichia coli, UniProt P10408).
T1 construct: made in house; host or cells: E. coli BL21(λDE3)/pT7-SecA
The assay is classed as cell-based, E. coli. To be noted: channel activity assay.

In the next assay the target is T2, Cx26 (Homo sapiens, UniProt P29033).
T2 construct: His6 (C); made in house; host or cells: insect Sf9 cells, Bac-to-Bac baculovirus system
In words: Cx26-proteoliposome hemi-channel activity in Xenopus oocytes. The assay is classed as cell-based. The protocol:
Voltage Clamp was performed to measure the opening of protein conducting channels. When the channel on the cell membrane was opened, ions pass through the membrane and generate the ionic current. Thus, the recording of ionic current could also mean the opening of the protein conducting channel. Currents through the plasma membranes of oocytes were measured after the oocytes were injected with tested materials. The cells were place in a recording chamber (BSC-HT, Medical System, Greenvale, N.Y.) on a supporting nylon mesh, so that the perfusion solution bathed both the top and the bottom surface of the oocytes. Two electrode voltage clamping was performed using an amplifier (Geneclamp 500, Axon instruments Inc., Foster City, Calif.) at room temperature (23-25° C.). Cells were impaled using electrodes filled with 3 M KCl. One of the electrode (1.0-2.0 MΩ) used for voltage recording was connected to the HS-2×1 L headstage (input resistance, […]), and the other electrode (0.3-0.6 MΩ) was used for current recording to the HS-2×10 MG headstage (maximum current, 130 μA). The electrode was connected through a silver wire that was chloridized freshly for each experiment. Oocytes were used for further experiments only if their leak currents measured as the difference before and after a leak subtraction were less than 10% of the peak currents. The leak subtraction was not applied for data acquisition and analysis. Current records were low-pass filtered (Bessel, 4-pole filter, 3 db at 5 kHz), digitized at 5 kHz (12 but resolution), and analyzed using pClamp6 (Axon Instruments). The highest and lowest records were eliminated, and then the data are presented as mean±S.E. (standard error; n, number of oocytes). The expression rates for each injection sample were also collected as a record to determine the channel activity efficiency.
The E. coli liposomes treated with detergent were mixed with purified Cx26 protein at 10:1 ratio. Then the mixture was dialyzed in dialysis solution (0.25 M Sucrose, 0.4 M KOAC, 20 mM triethanolamine hydrocholoride pH7.5, 1.5 mM Mg(OAC)2 and 1 mM EDTA) at 4° C. for 15-18 hours to reconstitute the Cx-26-proteoliposomes.
10 ng reconstituted Cx26-proteoliposomes was mixed with or without EGTA or CaCl2 and injected into oocytes. The injected oocytes were incubated at 23° C. for 30 mins with 1.8 mM CaCl2 to suppress the bubbling. Recording bath solution was 90K (90 mM KCl, 5 mM HEPES, 3 mM MgCl2) without Ca^2+. For Ca^2+ inhibition, the CaCl2 was added in the extracellular recording bath solution during the recording.

The next assay has as its target T3, PaSecA (Pseudomonas aeruginosa, UniProt Q9LCT3).
T3 construct: made in house; host or cells: E. coli BL21.19
In words: SecA-liposomes ion-channel activity in Xenopus oocytes (two-electrode voltage clamp). The assay is classed as cell-based, P. aeruginosa. To be noted: injected PaSecA-liposomes in oocytes.

Assay [1] addresses T4, E. coli SecA translocation ATPase (Escherichia coli, UniProt P10408).
T4 construct: made in house; host or cells: E. coli BL21(λDE3)/pT7-SecA (SecA); E. coli membranes supply SecYEG
The assay can be described thus: In vitro translocation ATPase inhibition kinetics. The assay is classed as biochemical. To be noted: requires SecYEG and precursors.

In assay [2] the target is Soluble SecA intrinsic ATPase (Escherichia coli, UniProt P10408). The assay can be described thus: Soluble SecA intrinsic ATPase inhibition kinetics. The assay is classed as biochemical. Particulars: data not shown.
Soluble SecA intrinsic ATPase, sequence (P10408 whole entry): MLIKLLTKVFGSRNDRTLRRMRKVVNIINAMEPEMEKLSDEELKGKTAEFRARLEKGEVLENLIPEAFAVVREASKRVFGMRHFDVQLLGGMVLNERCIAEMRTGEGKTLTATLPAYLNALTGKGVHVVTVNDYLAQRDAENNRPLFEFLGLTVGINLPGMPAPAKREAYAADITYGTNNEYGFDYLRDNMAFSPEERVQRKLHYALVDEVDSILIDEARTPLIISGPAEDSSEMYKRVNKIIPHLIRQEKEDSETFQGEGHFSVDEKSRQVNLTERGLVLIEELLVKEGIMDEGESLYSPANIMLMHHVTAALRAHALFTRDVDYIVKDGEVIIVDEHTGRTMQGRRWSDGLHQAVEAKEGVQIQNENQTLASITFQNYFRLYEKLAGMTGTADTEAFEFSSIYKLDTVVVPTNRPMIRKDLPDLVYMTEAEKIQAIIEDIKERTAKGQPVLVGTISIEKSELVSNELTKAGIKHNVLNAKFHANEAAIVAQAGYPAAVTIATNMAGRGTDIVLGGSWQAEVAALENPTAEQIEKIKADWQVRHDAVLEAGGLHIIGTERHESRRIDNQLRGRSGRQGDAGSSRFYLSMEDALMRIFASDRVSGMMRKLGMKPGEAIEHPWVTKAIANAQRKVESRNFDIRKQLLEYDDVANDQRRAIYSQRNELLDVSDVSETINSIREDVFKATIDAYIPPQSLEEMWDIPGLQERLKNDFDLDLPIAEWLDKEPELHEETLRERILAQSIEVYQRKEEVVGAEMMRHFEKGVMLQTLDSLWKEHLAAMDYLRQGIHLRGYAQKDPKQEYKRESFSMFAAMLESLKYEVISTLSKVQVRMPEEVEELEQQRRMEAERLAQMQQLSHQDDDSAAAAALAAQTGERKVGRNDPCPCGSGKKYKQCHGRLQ

T3 sequence (Q9LCT3 whole entry): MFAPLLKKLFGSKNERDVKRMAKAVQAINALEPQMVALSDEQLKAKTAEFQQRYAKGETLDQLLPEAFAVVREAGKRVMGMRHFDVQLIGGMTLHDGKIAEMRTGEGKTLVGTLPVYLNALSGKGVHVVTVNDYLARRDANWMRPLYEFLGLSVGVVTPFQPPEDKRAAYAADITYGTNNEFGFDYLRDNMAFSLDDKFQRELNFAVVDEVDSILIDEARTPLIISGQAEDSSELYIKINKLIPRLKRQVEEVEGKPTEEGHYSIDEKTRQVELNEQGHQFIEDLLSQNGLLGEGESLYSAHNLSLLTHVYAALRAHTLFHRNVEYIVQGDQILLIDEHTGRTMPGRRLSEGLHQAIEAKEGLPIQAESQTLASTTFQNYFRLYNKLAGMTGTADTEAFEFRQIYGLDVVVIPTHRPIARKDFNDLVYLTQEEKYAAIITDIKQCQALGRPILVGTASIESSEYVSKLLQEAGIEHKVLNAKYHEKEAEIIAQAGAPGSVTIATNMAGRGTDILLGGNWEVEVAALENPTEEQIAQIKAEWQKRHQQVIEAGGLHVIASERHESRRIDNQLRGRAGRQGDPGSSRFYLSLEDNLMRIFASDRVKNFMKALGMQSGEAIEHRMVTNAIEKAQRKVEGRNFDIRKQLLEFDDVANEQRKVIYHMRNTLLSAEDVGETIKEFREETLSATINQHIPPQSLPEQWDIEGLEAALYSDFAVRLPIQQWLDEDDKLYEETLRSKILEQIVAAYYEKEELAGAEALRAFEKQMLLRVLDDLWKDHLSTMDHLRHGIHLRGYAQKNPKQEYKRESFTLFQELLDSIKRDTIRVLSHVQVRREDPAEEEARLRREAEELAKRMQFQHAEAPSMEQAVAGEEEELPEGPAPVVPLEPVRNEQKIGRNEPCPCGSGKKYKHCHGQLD
T4 sequence (P10408 whole entry): as the sequence (P10408 whole entry) above
T4 sequence (P0AGA2 whole entry, further chain): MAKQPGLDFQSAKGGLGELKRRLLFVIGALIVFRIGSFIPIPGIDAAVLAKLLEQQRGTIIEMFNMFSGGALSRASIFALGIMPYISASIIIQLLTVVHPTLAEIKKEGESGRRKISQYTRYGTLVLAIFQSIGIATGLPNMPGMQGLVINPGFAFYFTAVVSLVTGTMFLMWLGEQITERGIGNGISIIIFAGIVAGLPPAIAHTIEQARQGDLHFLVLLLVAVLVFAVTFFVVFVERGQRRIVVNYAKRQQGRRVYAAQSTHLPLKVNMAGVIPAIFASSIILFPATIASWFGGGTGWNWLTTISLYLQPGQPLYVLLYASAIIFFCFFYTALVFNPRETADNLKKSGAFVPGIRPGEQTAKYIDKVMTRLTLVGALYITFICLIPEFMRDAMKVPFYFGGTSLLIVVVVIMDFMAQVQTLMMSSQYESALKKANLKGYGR
T4 sequence (P0AG96 whole entry, further chain): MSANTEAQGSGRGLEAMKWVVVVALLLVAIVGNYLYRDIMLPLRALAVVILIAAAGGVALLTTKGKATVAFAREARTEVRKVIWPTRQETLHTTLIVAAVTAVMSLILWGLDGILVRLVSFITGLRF
T4 sequence (P0AG99 whole entry, further chain): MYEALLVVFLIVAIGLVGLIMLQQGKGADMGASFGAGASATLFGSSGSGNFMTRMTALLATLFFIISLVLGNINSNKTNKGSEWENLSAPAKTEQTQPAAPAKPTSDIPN
T1 sequence (P10408 whole entry): as the sequence (P10408 whole entry) above

Consider `Oc1ccc2c(c1)Oc1cc(O)ccc1C2C1CCCCC1` [22d], for which the “Potency against EcSecA relative to BsSecA” value at EcSecA was “about 2 fold”.
Compound `[Ca+2].[Cl-].[Cl-]` [CaCl2] came in with a Cx26 channel current on Cx26 (30 mM CaCl2 added to same extracellular bath after EGTA, 2 mins incubation) of 1.3 μA. Moreover, the “Effect on Cx26 channel activity” value at Cx26 (CaCl2 co-injected with 5 mM EGTA) is recorded as “reduced the activity”; on Cx26 (co-injection with 2 mM CaCl2) it was “slightly inhibited”. For the same compound, on Cx26 (CaCl2 in extracellular bath solution), the “Half-time of inhibition of Cx26 channel activity” value is on record as “about 1 min”.
`O=C(O)CN(CCOCCOCCN(CC(=O)O)CC(=O)O)CC(=O)O` [EGTA] returned a Cx26 channel current at Cx26 (10 mM EGTA in extracellular recording bath, from 2 μA) of 7 μA. Moreover, the “Cx26 hemi-channel activity (current)” value at Cx26 (co-injection with 5 mM EGTA, Cx26-liposomes alone around 2 μA) was 7 μA.
Take `O=C(O)c1c(Cl)c(Cl)c(Cl)c(Cl)c1-c1c2cc(I)c(=O)c(I)c-2oc2c(I)c(O)c(I)cc12` [RB, Rose Bengal]: the “Inhibition kinetics with ATP, channel activity” value on PaSecA is “non-competitive”. In assay [1], the “Inhibition kinetics with ATP” value is given as “non-competitive”. In addition, the “Inhibition kinetics with RB” value is “competitive” in assay [2] (high ATP) and “non-competitive” in assay [2] (low ATP).
